“And” between values parts separate entries of the source, which are not always exact repeats. Identical values can stand only once. Counter-ions that a name gives are not always drawn. Marks after values point to notes of the source that are not given here.
Legend:
[1] = system: morphine-induced hypomotility; assay: Charcoal meal assay (gastrointestinal motility) of Witkin et al.; type: in vivo, mice; conditions: for effect on percentage of intestine traveled in the absence of morphine: groups 4 and 6, no morphine; for effect on percentage of intestine traveled in the absence of morphine / alleviation of the depressant effect of morphine on intestinal transit: result in words; for alleviation of the depressant effect of morphine on intestinal transit: groups 5 and 7, morphine 10 mg/kg p.o.
Text: To determine whether nalmefene glucuronide would alleviate morphine-induced hypomotility, the charcoal meal assay method of Witkin et al. (J. Pharmacol. Ext. Therep., 133: 400, 1961) was done on 56 mice. […]

opioid-dependant animals = assay: Rapid Quantitative In Vivo Assay for Narcotic Antagonist of Katovich et al. (skin tail temperature rise as a CNS withdrawal sign); conditions: Figure 2; injection of 1000 µg/kg
Text: The Rapid Quantitative In Vivo Assay for Narcotic Antagonist of Katovich et al. (Substance and Alcohol Actions/Misuse, vol 5: 87095, 1984) was used. This assay is based on the extreme sensitivity of opioid-dependant animals to narcotic antagonists. Injection of these animals with a narcotic antagonist produces severe central nervous system withdrawal signs. One of these signs is an abrupt rise in the skin temperature of the tail.

[2] = Absorption and intestinal distribution of 14C labelled nalmefene glucuronide after oral administration; type: in vivo; conditions: rats
Text: However the 2-3% of the dose which had reached the cecum by this time was almost exclusively free nalmefene. Therefore the glucuronide of an opioid antagonist provides a means of preventing narcotic-induced intestinal hypomotility without interfering with central nervous system effects of narcotics, such as analgesia.

[3] = Morphine 10 mg/kg p.o. 30 minutes before drug p.o., 15 mg/kg or 2.9 x 10⁻⁶ M/kg nalmefene glucuronide, 2.9 x 10⁻⁶ M/kg nalmefene HCl, determined 30 min later
[4] = Saline p.o. 30 minutes before drug p.o. (no morphine), 15 mg/kg or 2.9 x 10⁻⁶ M/kg nalmefene glucuronide, 2.9 x 10⁻⁶ M/kg nalmefene HCl, determined 30 min later

Row | Structure (SMILES) | Percent Meal Traveled ± S.E.M. ([1]; mouse, in vivo) | reduction of the percentage of the intestine traveled ([1]; mouse, in vivo) | Percent Meal Traveled ± S.E.M. [1, 3] | Percent Meal Traveled ± S.E.M. [1, 4] | effect on percentage of intestine traveled in the absence of morphine [1] | alleviation of the depressant effect of morphine on intestinal transit [1] | rise in skin tail temperature (opioid-dependant animals) | absorption following oral administration ([2]; doses as high as 40 mg/kg) | dose present in the small intestine still as nalmefene glucuronide ([2]; oral, 2 hours after dosing) | radioactivity in plasma ([2]; oral, 2 hours after dosing) | alleviation of the depressant effect of morphine on intestinal transit ([1]; listed as nalmefene glucuronide) | alleviation of the depressant effect of morphine on intestinal transit ([1]; listed as nalmefene-3β-D-glucuronide) | alleviation of the depressant effect of morphine on intestinal transit ([1]; listed as nalmefene-β-D-glucuronide)
1 | CN1CC[C@]23c4c5ccc(O)c4O[C@H]2[C@@H](O)C=C[C@H]3[C@H]1C5 [Morphine] | 28 ± 2 (N=8)^c Percent and 31 ± 3 (N=8)^c,^g Percent | more than half |  |  |  |  |  |  |  |  |  |  | 
2 | C=C1CC[C@@]2(O)[C@H]3Cc4ccc(O)c5c4[C@@]2(CCN3CC2CC2)[C@H]1O5 [Nalmefene HCl, 6-methylene-6-desoxy-N-cyclopropylmethyl-14-hydroxydihydronormorphine] |  |  | 66 ± 14 (N=5)^d,^e,^f Percent | 63 ± 2 (N=8)^c Percent | neither nalmefene (group 6) nor nalmefene glucuronide (group 4) had any significant effect | protected the intestine against the depressant effect of morphine |  |  |  |  |  |  | 
3 | C=C1CCC2(O)C3Cc4ccc(OC5OC(C(=O)O)C(O)C(O)C5O)c5c4C2(CCN3CC2CC2)C1O5 [Nalmefene Glucuronide, nalmefene-3β-D-glucuronide] |  |  | 58 ± 12 (N=5)^d,^e,^h,^i Percent | 66 ± 3 (N=8)^d Percent | neither nalmefene (group 6) nor nalmefene glucuronide (group 4) had any significant effect |  | had no effect | not absorbed to any measurable extent | about 85% | No radioactivity could be detected | protected the intestine against the depressant effect of morphine | as effective as nalmefene | as effective as nalmefene

Source: EP0324212A1, “Glucuronic acid derivatives of opioid antagonists” (BAKER NORTON PHARMACEUTICALS, INC., priority 1988, dated 1989)
